The target in experiment [1] is T1, T. cruzi CYP51 (Trypanosoma cruzi, UniProt Q7Z1V1). The experiment is described as follows: CYP51 spectral ligand binding assay. The settings on record: for time course of the amplitude of the type 2 spectral response: T. cruzi CYP51 1.0 μM, 0.2 μM ligand (enzyme in excess).
Another experiment deals with Chagas disease. The settings on record: acute and chronic forms; cited from earlier work.
Experiment [2] concerns the target T1, T. cruzi CYP51. The experiment is described as follows: CYP51 activity assay. The class given is biochemical. Conditions: vs (R)-2; I/E=2, 1 h.

T1 sequence (Q7Z1V1 whole entry): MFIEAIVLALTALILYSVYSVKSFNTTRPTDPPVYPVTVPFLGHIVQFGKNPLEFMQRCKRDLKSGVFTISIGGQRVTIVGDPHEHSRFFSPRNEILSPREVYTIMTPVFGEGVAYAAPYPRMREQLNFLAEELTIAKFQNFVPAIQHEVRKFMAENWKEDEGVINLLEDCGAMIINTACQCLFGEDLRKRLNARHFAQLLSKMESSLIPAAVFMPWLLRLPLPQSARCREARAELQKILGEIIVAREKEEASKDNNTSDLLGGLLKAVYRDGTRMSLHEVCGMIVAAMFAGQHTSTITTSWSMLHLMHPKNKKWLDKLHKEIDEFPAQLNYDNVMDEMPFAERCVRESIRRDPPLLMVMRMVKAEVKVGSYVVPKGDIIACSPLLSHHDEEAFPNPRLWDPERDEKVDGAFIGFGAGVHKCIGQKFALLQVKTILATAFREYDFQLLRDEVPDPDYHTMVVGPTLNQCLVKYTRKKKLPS

`CC(=O)N1CCN(c2ccc(OCC3COC(Cn4ccnc4)(c4ccc(Cl)cc4Cl)O3)cc2)CC1` (centres unmarked) [ketoconazole, reference compound]: the “time course of the amplitude of the type 2 spectral response” value on T. cruzi CYP51 [1] is given as “somewhat similar pattern”. For `O=C(N[C@@H](Cn1ccnc1)c1ccc(Cl)cc1Cl)c1ccc(-c2nnc(-c3ccccc3)o2)cc1` [VNI, (R)-N-(1-(2,4-dichlorophenyl)-2-(1H-imidazol-1-yl)ethyl)-4-(5-phenyl-1,3,4-oxadiazol-2-yl)benzamide], the “cure of Chagas disease in mice” value in the experiment with Chagas disease was “cure both the acute and chronic forms”. In the case of `O=C(Nc1ccc(N2CCN(c3ccc(Cl)c(Cl)c3)CC2)cc1)OC(Cn1ccnc1)c1ccc(Cl)cc1Cl` (centres unmarked) [Compound 6, 1-(2,4-dichlorophenyl)-2-(1H-imidazol-1-yl)ethyl 4-[4-(3,4-dichlorophenyl)piperazin-1-yl]phenylcarbamate], the “time course of the amplitude of the type 2 spectral response” value on T. cruzi CYP51 [1] was “very slow increase”. Regarding `CC(C)c1ccc(NC(=O)O[C@H](Cn2ccnc2)c2ccc(Cl)cc2)cc1` [(S)-2, 1-(4-chlorophenyl)-2-(1H-imidazol-1-yl)ethyl-4-isopropylphenylcarbamate], the “apparent binding efficiency, fold higher than (R)-2” value on T. cruzi CYP51 [1] (vs (R)-2) was 2 fold. Further, on T. cruzi CYP51 [2], the “inhibitory effect on the substrate conversion, fold stronger than (R)-2” value is reported as about 50 fold.
